Assay results: patent US12628833B2, “Composition and method for improving plant growth” (ALGAIA, priority 2019, dated 2026)

Columns and labels:
Type in all cases: cell-based
[1] = system: Bacillus megaterium; test: Growth in liquid medium (96-well microplate, absorbance 600 nm), tested solution as only carbon source
Experimental: (§1) The effect of the addition of algae extracts to a […] culture medium on the growth kinetics of seven bacterial species with a recognized PGPR (Plant-Growth Promoting Rhizobacteria) effect was determined: Bacillus megaterium, Bacillus subtilis, Rhizobium leguminosarum, Azotobacter vinelandii, Pseudomonas fluorescens, Pseudomonas fulva, Arthrobacter agilis.
(§2) Nutrient broth NB culture medium (Sigma-Aldrich) at 25 g/L was used for the multiplication of the following bacteria: Bacillus subtilis, Bacillus megaterium, Arthrobacter agilis, Pseudomonas fluorescens, Pseudomonas fulva. YMA medium (Sigma-Aldrich) without agar was used for Rhizobium leguminosarum bacteria.
(§3) Tests in sterile 96-well round-bottom microplates were performed. An absorbance of 0.06 to 0.08 (600 nm) for inoculation of the bacteria into the microplate was used in these tests.
(§4) Microplate plating included a blank, a positive control, a negative control and the samples.
(§5) The positive control was composed of bacteria and optimum culture medium (nutrient broth NB), in order to verify good multiplication of the bacteria in the microplates.
(§6) The negative control consisted of sterilized distilled water devoid of carbonaceous elements with 20 μl of bacteria inoculated with their NB culture medium, in order to determine how bacterial growth behaved in a medium depleted of any carbonaceous elements.
(§7) The blank was distilled water without bacteria in order to determine possible variations in absorbance and potential bacterial contamination.
(§8) The different algal extract tests consisted of sterile distilled water with the tested solutions at different concentrations (66 μl) to which 20 μl of bacteria were added.
(§9) The different seaweed extracts tested are: commercial mannitol, commercial laminarans, composition according to the invention (laminarans extract).

[2] = system: Pseudomonas fluorescens; test: as above
Experimental: as §1, §2, §3, §4, §5, §6, §7, §8, §9

[3] = system: Pseudomonas fulva; test: as above
Experimental: as §1, §2, §3, §4, §5, §6, §7, §8, §9

[4] = system: bacterial species with a recognized PGPR (Plant-Growth Promoting Rhizobacteria) effect; test: Growth in liquid medium (96-well microplate), bacteria not specified
Experimental: as §1, §2, §3, §4, §5, §6, §7, §8, §9
FIGS. 1 to 3 show a growth of bacterial strains in liquid medium using only the generated extract as carbon source for different bacteria.

Molecule	interaction between bacteria and compound (growth curve versus negative and positive control) ([1]; concentration 0.3%)	interaction between bacteria and compound (growth curve versus negative and positive control) ([1]; concentration 0.5%)	interaction between bacteria and compound (growth curve versus negative and positive control) ([1]; concentration 1%)	interaction between bacteria and compound (growth curve versus negative and positive control) ([2]; concentration 0.3%)	interaction between bacteria and compound (growth curve versus negative and positive control) ([2]; concentration 0.5%)	interaction between bacteria and compound (growth curve versus negative and positive control) ([2]; concentration 1%)	interaction between bacteria and compound (growth curve versus negative and positive control) ([3]; concentration 0.3%)	interaction between bacteria and compound (growth curve versus negative and positive control) ([3]; concentration 0.5%)	interaction between bacteria and compound (growth curve versus negative and positive control) ([3]; concentration 1%)	concentration of maximum effect on bacterial growth ([4]; sole source of carbon)	effect on bacterial growth ([4]; sole source of carbon, higher concentrations (2%))	effect on bacterial growth ([4]; sole source of carbon, lower concentrations (0.1%))	effect on bacterial growth ([4]; concentration not given)	effect on bacterial growth ([4]; concentrations in the range of <0.01%)	effect on bacterial growth ([4]; especially when the concentration was above 0.1%)	concentration from which it can be used as a carbon source (increase in bacterial growth) ([4]; used alone)	dependence of the effect on bacterial growth on concentration ([4]; used alone as carbon source)
OC[C@@H](O)[C@@H](O)[C@H](O)[C@H](O)CO [purified mannitol, mannitol]	absence of interaction between bacteria and compounds	absence of interaction between bacteria and compounds	positive interaction between bacteria and compounds	absence of interaction between bacteria and compounds	absence of interaction between bacteria and compounds	positive interaction between bacteria and compounds	absence of interaction between bacteria and compounds	absence of interaction between bacteria and compounds	positive interaction between bacteria and compounds	1%	very little or no effect	very little or no effect					
Alginates													little effect				
Fucoidans														a small improvement in growth	did not seem to show any real positive effect		
laminaran [standard laminaran]	absence of interaction between bacteria and compounds	absence of interaction between bacteria and compounds	positive interaction between bacteria and compounds	absence of interaction between bacteria and compounds	absence of interaction between bacteria and compounds	positive interaction between bacteria and compounds	absence of interaction between bacteria and compounds	absence of interaction between bacteria and compounds	positive interaction between bacteria and compounds							about 1%	the higher the concentration, the greater the effect
